ChEMBL document CHEMBL5143511, “Positioning of an unprecedented 1,5-oxaza spiroquinone scaffold into SMYD2 inhibitors in epigenetic space” (Eur J Med Chem, 2022)

Columns and labels:
[1] = target: T1, N-lysine methyltransferase SMYD2 (Homo sapiens, UniProt Q9NRG4); experiment: Inhibition of SMYD2 (unknown origin) using 3H-SAM as substrate incubated for 1 hr by filter binding method
[2] = target: T1, N-lysine methyltransferase SMYD2; experiment: Inhibition of SMYD2 (unknown origin) assessed as residual activity at 10 uM using 3H-SAM as substrate incubated for 1 hr by filter binding method relative to control
MDA-MB-231 = experiment: Antiproliferative activity against human MDA-MB-231 cells assessed as inhibition of cell growth incubated for 72 hrs by CellTiter-Glo luminescent cell viability assay; type: functional, cell-based; details: MDA-MB-231, 72 h
Ca-Ski = experiment: cells; type: functional, cell-based; details: Homo sapiens, 72 h
Description: Antiproliferative activity against human Ca-Ski cells assessed as inhibition of cell growth incubated for 72 hrs by CellTiter-Glo luminescent cell viability assay

HEK293 = experiment: Induction of apoptosis in HEK293 cells assessed as increase in cleaved PARP level at 0.0195 to 10 uM incubated for 24 hrs by immunoblot analysis; type: toxicity, cell-based; details: human, hek293, 24 h, dose 0.0195-10 µM

T1 sequence (Q9NRG4 whole entry): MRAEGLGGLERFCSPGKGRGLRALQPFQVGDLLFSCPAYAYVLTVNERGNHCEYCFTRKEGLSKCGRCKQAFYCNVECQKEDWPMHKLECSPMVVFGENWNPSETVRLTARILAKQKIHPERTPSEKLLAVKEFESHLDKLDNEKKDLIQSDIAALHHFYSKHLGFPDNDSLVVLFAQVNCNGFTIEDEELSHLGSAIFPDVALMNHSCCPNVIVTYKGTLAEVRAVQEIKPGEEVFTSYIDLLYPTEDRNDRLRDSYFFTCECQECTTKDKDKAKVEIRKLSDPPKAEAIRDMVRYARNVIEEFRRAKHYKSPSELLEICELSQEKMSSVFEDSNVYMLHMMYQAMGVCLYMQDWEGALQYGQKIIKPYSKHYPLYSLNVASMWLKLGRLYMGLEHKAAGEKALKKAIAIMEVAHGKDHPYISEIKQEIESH

Compound	IC50 [1] [µM]	Activity [2] [%]	IC50 (MDA-MB-231) [µM]	IC50 (Ca-Ski) [µM]	Activity (HEK293)
C=CCC1COC2(C=CC(=O)C=C2)N(C(C)C)C1=O (centres undefined)	> 20	101	–	–	–
CN1C(=O)C(CCNc2ccc(F)cc2)COC12C=CC(=O)C=C2 (centres undefined)	11.6	20.6	–	–	–
CC(C)N1C(=O)C(Cc2ccc([N+](=O)[O-])cc2)COC12C=CC(=O)C=C2 (centres undefined)	> 20	66.7	–	–	–
O=C1COc2c(CCNCCN(C(=O)CCNCCc3ccc(Cl)c(Cl)c3)C3CCCCC3)ccc(O)c2N1	–	–	13.1	–	Non-Toxic
CN1C(=O)C(CCO[Si](C)(C)C(C)(C)C)COC12C=CC(=O)C=C2 (centres undefined)	> 30	–	–	–	–
CN[C@@H]1C[C@H]2O[C@@](C)([C@@H]1OC)n1c3ccccc3c3c4c(c5c6ccccc6n2c5c31)C(=O)NC4 [STAUROSPORINE]	–	–	0.000858	–	–
CN1C(=O)C(CCNc2cnc3ccccc3c2)COC12C=CC(=O)C=C2 (centres undefined)	> 20	64.6	–	–	–
CC(C)N1C(=O)C(Cc2ccc(C(F)(F)F)cc2)COC12C=CC(=O)C=C2 (centres undefined)	> 20	33.8	–	–	–
CC(C)N1C(=O)C(Cc2ccc(C#N)cc2)COC12C=CC(=O)C=C2 (centres undefined)	> 20	80.7	–	–	–
N#Cc1cccc(-n2cc(CC3COC4(C=CC(=O)C=C4)N(c4ccccc4)C3=O)nn2)c1 (centres undefined)	> 30	–	–	–	–

The remaining compounds from weak to strong by IC50 [1], led by results:

IC50 [1] [µM]	Activity [2] [%]	IC50 (MDA-MB-231) [µM]	IC50 (Ca-Ski) [µM]	Compound	Activity (HEK293)
5.8	–	–	–	CN1C(=O)C(CCO[Si](c2ccccc2)(c2ccccc2)C(C)(C)C)COC12C=CC(=NNc1ccccc1)C=C2 (centres undefined)	–
5.55	14.2	–	–	COc1ccc(N2CCCCC2)c(NCCC2COC3(C=CC(=O)C=C3)N(C)C2=O)c1 (centres undefined)	–
3.82	12.6	–	–	CN1C(=O)C(CCNc2ccc(Cl)c(Cl)c2)COC12C=CC(=O)C=C2 (centres undefined)	–
3.06	19.9	1.08	0.927	CN1C(=O)C(C/C=N/n2c3ccccc3c3ccccc32)COC12C=CC(=O)C=C2 (centres undefined)	–
2.31	16.1	–	–	CN1C(=O)C(CCNc2ccc(-c3cccs3)cc2)COC12C=CC(=O)C=C2 (centres undefined)	–
2.13	6.94	0.667	0.785	CN1C(=O)C(CCNc2cc(C(F)(F)F)cc(C(F)(F)F)c2)COC12C=CC(=O)C=C2 (centres undefined)	–
0.678	–	–	–	CC(C)[Si](OCCC1COC2(C=CC(=O)C=C2)N(C)C1=O)(C(C)C)C(C)C (centres undefined)	–
0.399	–	–	–	CC(C)N1C(=O)C(CCO[Si](c2ccccc2)(c2ccccc2)C(C)(C)C)COC12C=CC(=O)C=C2 (centres undefined)	–
